Reference: patent EP0366451A2, “The use of oxidized polyamines, especially NN'-Bis-(3-propionaldehyde)-1-4-diaminobutane (sperminedialdehyde) as immunosuppressive agents” (ORTHO PHARMACEUTICAL CORPORATION, priority 1988, dated 1990)

Tests used:
B6D2F1 mice = assay: Delayed type hypersensitivity to SRBC, footpad swelling; assay type: in vivo
Experimental: Delayed type hypersensitivity was induced in the footpad of B6D2F1 mice and swelling measured in mm. Spermine dialdehyde was administered i.p. and i.m. at various timeperiods.
Delayed type hypersensitivity was induced in the footpad of B6D2F1 mice by using sheep red blood cells (SRBC) as the antigen. Briefly, 0.2 ml of 0.01% SRBC was injected i.v. into B6D2F1 mice. Four days later, they were challenged in the footpad with 50 µl of 20% SRBC. Swelling of the footpad was measured 24, 48, and 72 hours later. Spermine dialdehyde was administered i.p. initiating from the day before immunization. After challenge in the footpad, B6D2F1 mice were given an intramuscular (i.m.) injection beside the challenge site one hour after challenge. Some mice received no i.p. administration and were only given one i.m. injection after the challenge.

(Lewis x BN) F1 rats = assay: Graft vs. host reaction in rat (popliteal lymph node study); assay type: in vivo
Experimental: (LewXBN) rats were injected i.v. daily for 8 days with different doses of spermine dialdehyde. On day 2, BN rat spleen cells were injected subcutaneously into the left foot pads of the (LewxBN)F1 rats. These rats were sacrificed in 7 days and weights of both left and right popliteal lymph nodes were removed. The difference in weight is plotted as a function of spermine dialdehyde concentrations used.
Graft vs. host reaction in rats was measured by popliteal lymph node enlargement induced by reinjection of parental spleen cells into F1 recipients. (Lewis x BN) F1 rats were divided into groups of 10 and given daily IV injections of different doses of the test compound (spermine dialdehyde) or control preparation. Two days after the first injection, they received 9 x 10⁶ spleen cells from a parental Lewis strain (0.3 ml of a […] cell/ml preparation was injected under the skin of the ventral surface of each of the recipient's right hind foot). Injection of test compound and control article continued for 6 more days. On the seventh day, rats were sacrificed by CO₂ treatment. Both left and right politeal lymph nodes were removed and cleaned of any adhering tissue. The extent of enlargement was measured by weighing both left and right lymph nodes and differences between the two were calculated.
Graft vs. host reaction was generated in the form of popliteal lymph node in F1 recipients by subcutaneous injection of parental spleen cells. Spermine aldehyde was administered intravenously starting 2 days before parental spleen cell injection and continued until the day of lymph node measurement. Increase in popliteal lymph node swelling was scored by difference in weight between test (left) and control (right) lymph node. […] This GVH reaction is a typical manifestation of MHC class II reaction involving allogenic T lymphocytes.

[1] = system: Cytosolic ALDH in mouse liver; assay: NAD-linked cytosolic ALDH assay, mouse liver; assay type: biochemical
Experimental: (§1) Cultured murine leukemic cells and livers (excised from mice immediately after cervical dislocation) were homogenized in 3 volumes of ice-cold 1.15% KCl and 1 mM EDTA. The homogenate was centrifuged at 100,000 g for 45 min and the resulting supernatant was used to measure cytosolic ALDH activity. For particulate ALDH assay, the pellet (and homogenate for total ALDH) was resuspended in homogenizing buffer and treated with 0.25% Triton X-100 for 30 min at 4°C. The solubilized preparations were centrifuged at 48,000 g for 30 min and the supernatants were drawn off for ALDH determinations.
(§2) ALDH activity was measured by monitoring the reduction of NAD or NADp for 5-6 min at […] at 37°C in DU70 spectrophotometer (Beckman). The assay mixture contained 50 mM potassium phosphate buffer, pH 7.4, 2.0 mM NAD (or NADP) and 1.0 mM EDTA. The reaction was started by adding the substrate (SDA or other aldehyde) to the prewarmed (5 min at 37°C) assay mixture containing enzyme preparation. Pyrazole (0.1 mM) was added particularly for liver enzyme, to inhibit alcohol dehydrogenase. The apparent Km and maximum velocity (Vmax) values were calculated using a Lineweaver-Burk plot based on the estimation of the slope by regression analysis. Enzyme activity was expressed as mU (nmoles/min) per mg of protein. Protein contents were determined by the Bradford method, using bovine serum albumin as the standard.

ALDH = ALDH assay in L1210/0 cells; assay type: biochemical, Murine; conditions: SDA as substrate
Experimental: as §1, §2

Ornithine decarboxylase = Ornithine decarboxylase (Mus musculus, UniProt P00860); assay: Ornithine decarboxylase inhibition; assay type: biochemical; conditions: Figure 10
Chain of Ornithine decarboxylase (P00860 whole entry): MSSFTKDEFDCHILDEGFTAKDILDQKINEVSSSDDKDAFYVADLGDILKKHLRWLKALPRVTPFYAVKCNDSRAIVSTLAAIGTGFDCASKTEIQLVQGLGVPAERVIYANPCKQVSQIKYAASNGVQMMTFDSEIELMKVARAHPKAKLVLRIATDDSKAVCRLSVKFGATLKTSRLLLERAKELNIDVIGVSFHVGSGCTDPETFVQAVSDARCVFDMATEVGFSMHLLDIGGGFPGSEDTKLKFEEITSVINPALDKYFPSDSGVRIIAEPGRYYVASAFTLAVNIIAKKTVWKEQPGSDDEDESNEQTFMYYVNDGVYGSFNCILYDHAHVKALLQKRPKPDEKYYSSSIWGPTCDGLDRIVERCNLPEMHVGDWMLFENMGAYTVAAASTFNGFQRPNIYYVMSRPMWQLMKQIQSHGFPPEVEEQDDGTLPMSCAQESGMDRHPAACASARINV
Text: The figure illustrates the comparative profile of the inhibition of key regulatory enzymes of polyamine synthesis by SDA, its analogue, butyl dialdehyde (BDA), difluoromethyl orinithine (DFMO) and methyl glyoxal bis (guanylhydrazone) (MGBG).

[2] = system: NADP-linked cytosolic ALDH; assay: NADP-linked cytosolic ALDH assay, L1210/CPA cells; assay type: biochemical, Murine; conditions: SDA as substrate, L1210/CPA cells
Experimental: as §1
as §2, with “standard. […]” for “standard.”

[3] = system: BFU-E and CFU-GM colonies; assay: Hemopoietic colony formation assay; assay type: cell-based, murine
Experimental: Hemopoietic colony forming cells were cultured as described in the art by Iscove & Sieber with minor modifications. SDA/DEAB treated or vehicle treated cells were added to murine hemopoietic culture mixture with erythropoietin and conditioned medium (Terry Fox Laboratories, Vancouver, Canada). The mixture was vortexed and 1-2 ml portions (1 x 10⁵ bone marrow cells) were plated in duplicate in 35 mm plastic petri dishes (lux suspension dishes, Flow Laboratories). The culture dishes were incubated in a humidified atmosphere (95% air : 5% CO₂) at 37°C. Colonies were counted on day 8 or 10 for BFU-E, CFU-GM and CFU-mix. Colony types were confirmed with Wright/Giemsa Stain.

## O=CCCNCCCCNCCC=O [SDA, NN′-Bis-(3-propionaldehyde)-1-4-diaminobutane]
B6D2F1 mice; given both systemically (i.p.) and locally (i.m.), 24 or 48 hours after challenge, Figure 7
  footpad swelling: reduced swelling
B6D2F1 mice; given only after challenge, 24 hours later
  footpad swelling: swelling similar to that of mice receiving control vehicles
B6D2F1 mice; given only after challenge, 48 hours later
  footpad swelling: reduced swelling compared to that of the control group
(Lewis x BN) F1 rats; Rattus norvegicus, iv, Figure 4, read-out: dose required to achieve maximum suppression of GVH reaction in vivo
  ED (maximum): 5 mg/kg
(Lewis x BN) F1 rats; Rattus norvegicus, intravenously or subcutaneously, read-out: dose effective to suppress graft vs. host reactions
  minimal effective dose: 5 to 10 mg/kg
(Lewis x BN) F1 rats; intravenous, daily, Figure 4
  GVH reaction (popliteal lymph node swelling): significantly suppressed the GVH reaction
[1]; SDA as substrate, per mg protein
  specific activity of ALDH, liver compared to L1210 cells: 1.5 times
[1]; as substrate, mouse liver cytosol, NAD, ± SEM, 3-4 experiments
  Km: 48.5 µM
[1]; as substrate, mouse liver cytosol, propionaldehyde 1.0 mM
  Specific (activity of ALDH): 10.5 ± 3.2 mU/mg Protein
ALDH
  enzyme activity in L1210/0 cells: did not exhibit any detectable enzyme activity
Ornithine decarboxylase
  inhibition of ODC (in words): inhibited both of the key enzymes
[2]
  activity of NADP-linked cytosolic ALDH: 3.0-3.5 mU/mg protein
[3]; 50 µM
  suppression of BFU-E and CFU-GM colonies: almost total suppression
[3]; SDA 10-25 µM, DEAB pretreatment
  sensitivity of myeloid colony forming cells after DEAB pretreatment: further potentiated the sensitivity
